Patent publication US10703748B2, “Diazanaphthalen-3-yl carboxamides and preparation and use thereof” (Samumed, LLC, priority 2017, dated 2020)

Tests used:
IL-6 = IL-6 inhibition in LPS-stimulated human peripheral blood mononuclear cells (HTRF); settings: Homo sapiens, PBMC; for EC50: 22 h; for inhibition at 10 µM: read-out: percentage in parentheses after EC50 >10
GSK3β kinase = GSK3β kinase (Homo sapiens, UniProt P49841); assay: GSK3β kinase activity (Ser/Thr 09 peptide Z-lyte FRET assay); assay type: biochemical; settings: recombinant kinase, 46 μM ATP, one hour at room temperature; read-out: EC50
Chain of GSK3β kinase (P49841 whole entry): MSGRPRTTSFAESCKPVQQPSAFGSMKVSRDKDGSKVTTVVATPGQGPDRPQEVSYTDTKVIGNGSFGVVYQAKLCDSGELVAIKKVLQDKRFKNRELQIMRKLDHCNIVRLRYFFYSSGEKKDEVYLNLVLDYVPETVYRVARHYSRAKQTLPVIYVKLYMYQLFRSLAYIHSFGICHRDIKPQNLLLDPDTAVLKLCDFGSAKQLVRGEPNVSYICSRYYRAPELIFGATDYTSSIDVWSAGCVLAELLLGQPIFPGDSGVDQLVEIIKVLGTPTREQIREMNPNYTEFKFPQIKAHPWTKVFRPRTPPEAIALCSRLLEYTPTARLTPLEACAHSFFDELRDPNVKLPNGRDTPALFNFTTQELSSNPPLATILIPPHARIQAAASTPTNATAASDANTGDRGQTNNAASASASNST
Method: Each compound is dissolved in DMSO as a 10 mM stock and used to prepare compound source plates. Serial dilution (1:3, 11-point dose-response curves from 10 μM to 0.0003 μM) and compound transfer was performed using the ECHO 550 (Labcyte, Sunnyvale, Calif.) into 1536-well black-walled round bottom plates (Corning).
This is a non-radioactive assay using fluorescence resonance energy transfer (FRET) between coumarin and fluorescein to detect kinase activity which is represented as ratio of coumarin emission/fluorescein emission.
The mixture is allowed to incubate with the representative compounds for one hour at room temperature. All reactions were performed in duplicate. Unphosphorylated (“0% Control”) and phosphorylated (“100% control”) forms of Ser/Thr 18 serve as control reactions.
After incubation, diluted Development Buffer is added to the reaction and allowed to further incubate for one hour at room temperature.
Dose-response curves are generated and inhibitory concentration (IC50) values are calculated using non-linear regression curve fit in the Dotmatics' Studies Software (Bishops Stortford, UK).

DYRK1A kinase = DYRK1A kinase (Homo sapiens, UniProt Q13627); assay: DYRK1A kinase activity (Ser/Thr 18 peptide Z-lyte FRET assay); assay type: biochemical; settings: recombinant DYRK1A, 30 μM ATP, one hour at room temperature;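 further: kinase activity read as coumarin/fluorescein emission ratio after development step, with unphosphorylated and phosphorylated peptide forms setting 0% and 100% controls, values from dose-response curves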
[1] = tested on: Wnt-responsive Sp5-Luc reporter in SW480 colon carcinoma cells; assay: Screening assay for Wnt activity (Sp5-Luc reporter gene assay); settings: Homo sapiens; for EC50: SW480; for inhibition at 10 µM: SW480, read-out: percent inhibition at 10 μM
[2] = tested on: SW480 colon carcinoma cells; assay: Cell viability assay (CellTiter-Glo); settings: Homo sapiens; for EC50: SW480, 96 h; for inhibition at 10 µM: SW480, read-out: percent inhibition at 10 μM
[3] = tested on: secreted cytokines TNFα, IL-6 and KC-GRO; assay: Secreted cytokines in Lipopolysaccharide-stimulated BV-2 cells (Table 9 does not say which cytokine); assay type: cell-based, mouse; settings: Mus musculus, BV-2, 5 h; read-out: EC50
[4] = tested on: α-smooth muscle actin (aSMA) positive LL29 cells; assay: Inhibition of the fibrotic process: αSMA staining in TGF-β1 treated LL29 fibroblasts from IPF patients; settings: Homo sapiens, Fibroblast; for EC50: 96 h; for inhibition at 10 µM: read-out: percentage in parentheses after EC50 >10

CN1CC=C(c2cc(C(=O)Nc3ncc4ccc(-c5cncc(NC(C)(C)C)n5)cc4n3)ccn2)CC1 [Compound 1773, N-(7-(6-(tert-Butylamino)pyrazin-2-yl)quinazolin-2-yl)-1′-methyl-1′,2′,3′,6′-tetrahydro-[2,4′-bipyridine]-4-carboxamide] was tested, and the EC50 (IL-6) was over 10000 nM, the inhibition at 10 µM (IL-6) was 40.7% and the EC50 (GSK3β kinase) was 995 nM. The EC50 (DYRK1A kinase) was 1 nM, the EC50 [1] was 88 nM and the EC50 [2] was 95 nM. The EC50 [3] was 5 nM and the EC50 [4] was 163 nM.

Work on O=C(Nc1ncc2ccc(-c3cncc(NC4CCNCC4)n3)cc2n1)C1CCOCC1 [Compound 1783, N-(7-(6-(Piperidin-4-ylamino)pyrazin-2-yl)quinazolin-2-yl)tetrahydro-2H-pyran-4-carboxamide] yielded an EC50 (IL-6) of over 10000 nM, an inhibition at 10 µM (IL-6) of 6.1% and an EC50 (GSK3β kinase) of 536 nM. The EC50 (DYRK1A kinase) was 7 nM, the EC50 [1] was over 10000 nM and the inhibition at 10 µM [1] was 14.4%. It also gave an EC50 [2] of over 10000 nM, an inhibition at 10 µM [2] of 38.8% and an EC50 [3] of 6800 nM. It also gave an EC50 [4] of over 10000 nM and an inhibition at 10 µM [4] of 53.7%.

Compound CN1CCC(n2cc(C(=O)Nc3ncc4ccc(-c5cncc6[nH]ccc56)cc4n3)cn2)CC1 [Compound 1802, N-(7-(1H-Pyrrolo[2,3-c]pyridin-4-yl)quinazolin-2-yl)-1-(1-methylpiperidin-4-yl)-1H-pyrazole-4-carboxamide] has an EC50 (IL-6) of over 10000 nM, an inhibition at 10 µM (IL-6) of 47.2% and an EC50 (GSK3β kinase) of over 10000 nM. It also gave an EC50 (DYRK1A kinase) of 7 nM, an EC50 [1] of 1400 nM and an EC50 [2] of 1370 nM. The EC50 [3] was 4400 nM, the EC50 [4] was over 10000 nM and the inhibition at 10 µM [4] was 47.6%.

Work on CC(C)n1cc(C(=O)Nc2ncc3ccc(-c4cncc(NC5CCN(C)CC5)n4)cc3n2)cn1 [Compound 1813, 1-Isopropyl-N-(7-(6-((1-methylpiperidin-4-yl)amino)pyrazin-2-yl)quinazolin-2-yl)-1H-pyrazole-4-carboxamide] yielded an EC50 (IL-6) of over 10000 nM, an inhibition at 10 µM (IL-6) of 42% and an EC50 (GSK3β kinase) of over 10000 nM. It also gave an EC50 (DYRK1A kinase) of 2 nM, an EC50 [1] of 396 nM and an EC50 [2] of 1000 nM. It also gave an EC50 [3] of 952 nM and an EC50 [4] of 5820 nM.

With C[C@H]1CCCN1CC(=O)Nc1cc2cc(-c3cnn(C)c3)cnc2cn1 [Compound 2767, (S)—N-(3-(1-Methyl-1H-pyrazol-4-yl)-1,7-naphthyridin-6-yl)-2-(2-methylpyrrolidin-1-yl)acetamide] the EC50 (IL-6) was over 10000 nM, the inhibition at 10 µM (IL-6) was 0% and the EC50 (GSK3β kinase) was 2520 nM. The EC50 (DYRK1A kinase) was 34 nM, the EC50 [1] was over 10000 nM and the inhibition at 10 µM [1] was 20.7%. The EC50 [2] was over 10000 nM, the inhibition at 10 µM [2] was 37% and the EC50 [3] was 896 nM. It also gave an EC50 [4] of over 10000 nM and an inhibition at 10 µM [4] of 13.8%.

CN(CC(=O)Nc1cc2cc(-c3cnn(C)c3)cnc2cn1)C1CCC1 [Compound 2776, 2-(Cyclobutyl(methyl)amino)-N-(3-(1-methyl-1H-pyrazol-4-yl)-1,7-naphthyridin-6-yl)acetamide] showed an EC50 (IL-6) of over 10000 nM, an inhibition at 10 µM (IL-6) of 10.4% and an EC50 (GSK3β kinase) of over 10000 nM. It also gave an EC50 (DYRK1A kinase) of 56 nM, an EC50 [1] of 836 nM and an EC50 [2] of over 10000 nM. The inhibition at 10 µM [2] was 8.1%, the EC50 [3] was 1000 nM and the EC50 [4] was over 10000 nM. The inhibition at 10 µM [4] was 39%.

Cn1cc(-c2cnc3cnc(NC(=O)C4CCN(S(C)(=O)=O)CC4)cc3c2)cn1 [Compound 2792, N-(3-(1-Methyl-1H-pyrazol-4-yl)-1,7-naphthyridin-6-yl)-1-(methylsulfonyl) piperidine-4-carboxamide] gave an EC50 (IL-6) of over 10000 nM, an inhibition at 10 µM (IL-6) of 4% and an EC50 (GSK3β kinase) of 1150 nM. It also gave an EC50 (DYRK1A kinase) of 12 nM, an EC50 [1] of over 10000 nM and an inhibition at 10 µM [1] of 38.1%. It also gave an EC50 [2] of over 10000 nM, an inhibition at 10 µM [2] of 29% and an EC50 [3] of 357 nM. For the same compound, the EC50 [4] was over 10000 nM and the inhibition at 10 µM [4] was 44.8%.

Cn1cc(-c2cnc3cnc(NC(=O)CC4CNCCO4)cc3c2)cn1 (centres unmarked) [Compound 2807, N-(3-(1-Methyl-1H-pyrazol-4-yl)-1,7-naphthyridin-6-yl)-2-(morpholin-2-yl) acetamide] showed an EC50 (IL-6) of 7310 nM, an EC50 (GSK3β kinase) of 4940 nM and an EC50 (DYRK1A kinase) of 74 nM. The EC50 [1] was over 10000 nM, the inhibition at 10 µM [1] was 0% and the EC50 [2] was over 10000 nM. For the same compound, the inhibition at 10 µM [2] was 7.9%, the EC50 [3] was 919 nM and the EC50 [4] was over 10000 nM. It also gave an inhibition at 10 µM [4] of 35.2%.

Cn1cc(-c2cnc3cnc(NC(=O)C4CCN(Cc5ncco5)CC4)cc3c2)cn1 [Compound 2816, N-(3-(1-Methyl-1H-pyrazol-4-yl)-1,7-naphthyridin-6-yl)-1-(oxazol-2-ylmethyl)piperidine-4-carboxamide] was tested, and the EC50 (IL-6) was over 10000 nM, the inhibition at 10 µM (IL-6) was 2.2% and the EC50 (GSK3β kinase) was 5260 nM. The EC50 (DYRK1A kinase) was 24 nM, the EC50 [1] was over 10000 nM and the inhibition at 10 µM [1] was 15.4%. It also gave an EC50 [2] of over 10000 nM, an inhibition at 10 µM [2] of 23.2% and an EC50 [3] of 445 nM. The EC50 [4] was over 10000 nM and the inhibition at 10 µM [4] was 27.3%.
